Data: US9221838B2, “Inhibitors of AKT activity” (ALMAC DISCOVERY LIMITED, priority 2009, dated 2015)
pIC50: −log10 of the molar value.

Columns and labels:
Format in all cases: biochemical
[1] = molecular target: T1, AKT1 (Homo sapiens, UniProt P31749); test: AKT Kinase Assay (IMAP fluorescent polarisation) vs AKT1
T1 construct: purchased SignalChem
Procedure: (§1) Testing of the compounds was performed using an AKT Kinase Assay:
(§2) Activated AKT isoforms 1, 2 and 3 were assayed utilising a 5′ FAM Crosstide (Seq. GRPRTSSFAEG-OH)(SEO ID NO: 1). The extent of kinase phosphorylation was determined by fluorescent polarisation using IMAP progressive binding reagent, which introduces binding beads which allow the reagent to specifically bind to phosphate residues via covalent co-ordination complex bonds.
(§3) iMAP binding solution stops Crosstide/kinase interaction and specifically binds phosphorylated substrates. The degree of phosphorylation is determined by fluorescent polarisation (excitation 485 nm; emission 528 nm) or the reduction in speed of rotation of the excited substrate.
(§4) The following materials were used in the assay: • a) Activated AKT isoforms (SignalChem.) dissolved in Complete Reaction buffer at a pre-determined concentration selected so that the assay was carried out in the linear range. • b) AKT substrate peptide: FAM Crosstide (R7110) Molecular Devices, diluted in complete reaction buffer. • c) iMAP Progressive Screening Express Kit (R8127) Molecular Devices • d) Complete Reaction Buffer containing 0.1% BSA, 10 mM Tris-HCl, 10 mM MgCl2, 0.05% NaN3 and 0.01% phosphate free BSA, 1 mM DTT • e) Progressive Binding Solution containing 75% Buffer A, 25% Buffer B and low volume Binding Reagent which contains the binding entity for the assay • f) ATP diluted in complete reaction buffer • g) Black polystyrene 384 well assay plates (Nunc). • h) Biotek Synergy 4 Hybrid Plate reader.
(§5) 5 μl of test compound was dissolved in DMSO (Sigma Aldrich) and serially diluted in complete reaction buffer to give a fourteen point half log dose response and plated into 384 well black plates. The compound was incubated at room temperature with activated AKT isoform ([…] ) at the pre-determined concentration, for 45 minutes.
(§6) 2.5 μl of ATP solution mixed with 2.5 μl of AKT substrate peptide (FAM Crosstide (R7110) Molecular Devices) were dispensed into each well and the plate centrifuged at 1000 rpm for 20 seconds to ensure homogenous mixing of reagents. The reaction mix was incubated in the dark for one hour at room temperature.
(§7) The kinase reaction was stopped by the addition of Progressive Binding Solution and the mixture allowed to equilibrate for one hour in the dark, at room temperature.
(§8) The fluorescent polarisation generated in each well was determined using a […] Synergy 4 Hybrid plate reader. In brief, each reaction solution was excited at 485 nm with the emission measured at 528 nm in both the parallel and perpendicular pathway.
(§9) The polarisation value generated in each well was calculated by Gen5 software (Biotek) and the % inhibition of kinase activity compared to vehicle control was calculated via GraphPad Prism. IC50 values for each compound were calculated by non-linear regression analysis using Prism software.
(§10) All plates were internally controlled by two methods. Firstly, by calculating the signal:noise ratio; based on kinase polarisation without inhibitor and polarisation generated by complete reaction buffer in the absence of activated kinase. Secondly by determining IC50 values generated by known inhibitors of the AKT isoforms.

[2] = molecular target: T2, AKT3 (Homo sapiens, UniProt Q9Y243); test: AKT Kinase Assay (IMAP fluorescent polarisation) vs AKT3
T2 construct: purchased SignalChem
Procedure: as §1, §2, §3, §4, §5, §6, §7, §8, §9, §10

[3] = molecular target: T3, AKT2 (Homo sapiens, UniProt P31751); test: AKT Kinase Assay (IMAP fluorescent polarisation) vs AKT2
T3 construct: purchased SignalChem
Procedure: as §1, §2, §3, §4, §5, §6, §7, §8, §9, §10

T1 sequence (P31749 whole entry): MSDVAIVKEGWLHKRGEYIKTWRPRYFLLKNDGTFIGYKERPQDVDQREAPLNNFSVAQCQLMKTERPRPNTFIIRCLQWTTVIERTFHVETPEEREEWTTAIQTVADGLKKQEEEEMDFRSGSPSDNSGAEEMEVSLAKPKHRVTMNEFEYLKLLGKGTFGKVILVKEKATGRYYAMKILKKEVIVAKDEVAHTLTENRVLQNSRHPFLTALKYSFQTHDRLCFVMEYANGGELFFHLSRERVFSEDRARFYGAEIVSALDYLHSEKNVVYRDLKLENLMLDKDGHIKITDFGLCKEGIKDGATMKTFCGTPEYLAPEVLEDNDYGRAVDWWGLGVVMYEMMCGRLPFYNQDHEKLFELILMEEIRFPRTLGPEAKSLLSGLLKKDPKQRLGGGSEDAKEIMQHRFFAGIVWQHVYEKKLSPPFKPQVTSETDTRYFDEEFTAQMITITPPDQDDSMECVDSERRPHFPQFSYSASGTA
T2 sequence (Q9Y243 whole entry): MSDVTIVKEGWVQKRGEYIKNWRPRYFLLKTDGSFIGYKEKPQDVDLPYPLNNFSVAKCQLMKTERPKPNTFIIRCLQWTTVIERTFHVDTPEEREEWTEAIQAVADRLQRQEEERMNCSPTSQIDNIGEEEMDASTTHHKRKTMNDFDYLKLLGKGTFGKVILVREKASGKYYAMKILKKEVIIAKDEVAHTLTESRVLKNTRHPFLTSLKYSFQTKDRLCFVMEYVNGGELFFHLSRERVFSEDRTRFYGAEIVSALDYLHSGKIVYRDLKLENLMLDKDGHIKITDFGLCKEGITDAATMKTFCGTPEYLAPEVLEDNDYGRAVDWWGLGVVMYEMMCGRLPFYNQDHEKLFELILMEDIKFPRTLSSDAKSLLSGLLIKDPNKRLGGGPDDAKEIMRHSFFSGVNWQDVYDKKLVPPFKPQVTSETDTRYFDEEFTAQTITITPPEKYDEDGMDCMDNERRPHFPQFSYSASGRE
T3 sequence (P31751 whole entry): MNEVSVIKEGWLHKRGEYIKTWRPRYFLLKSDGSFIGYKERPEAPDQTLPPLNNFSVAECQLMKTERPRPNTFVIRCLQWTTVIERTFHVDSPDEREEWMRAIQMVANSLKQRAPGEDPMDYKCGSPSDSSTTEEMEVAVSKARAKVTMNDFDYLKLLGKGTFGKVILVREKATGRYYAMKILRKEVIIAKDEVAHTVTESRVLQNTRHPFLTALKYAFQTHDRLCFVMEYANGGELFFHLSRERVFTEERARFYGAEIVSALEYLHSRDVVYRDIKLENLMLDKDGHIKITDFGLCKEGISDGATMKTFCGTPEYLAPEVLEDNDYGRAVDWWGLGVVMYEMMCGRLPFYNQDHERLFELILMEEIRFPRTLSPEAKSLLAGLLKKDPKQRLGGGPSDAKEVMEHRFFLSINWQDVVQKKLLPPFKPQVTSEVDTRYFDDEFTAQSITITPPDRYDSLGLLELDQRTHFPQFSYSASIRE

Work on `CN1C(=O)COc2nc(-c3ccc(C4(N)CCC4)cc3)c(-c3ccsc3)cc21` [Example 125, 6-(4-(1-aminocyclobutyl)phenyl)-1-methyl-7-(thiophen-3-yl)-1H-pyrido[2,3-b][1,4]oxazin-2(3H)-one] yielded a pIC50 [1] of 6.00 to 7.00, a pIC50 [2] of 5.00 to 6.00 and a pIC50 [3] of 5.00 to 6.00.

Compound `Cn1cnc(-c2nnc3n2CCc2nc(-c4ccc(C5(N)CCC5)cc4)c(-c4ccccc4)cc2-3)c1` [Example 29, 1-(4-(3-(1-methyl-1H-imidazol-4-yl)-9-phenyl-5,6-dihydro-[1,2,4]triazolo[3,4-f][1,6]naphthyridin-8-yl)phenyl)cyclobutanamine] has a pIC50 [1] of at least 7.00, a pIC50 [2] of under 5.00 and a pIC50 [3] of 6.00 to 7.00.

`N#CCN1C(=O)COc2nc(-c3ccc(C4(N)CCC4)cc3)c(-c3ccccc3)cc21` [Example 33, 2-(6-(4-(1-aminocyclobutyl)phenyl)-2-oxo-7-phenyl-2,3-dihydro-1H-pyrido[2,3-b][1,4]oxazin-1-yl)acetonitrile] was tested, and the pIC50 [1] was at least 7.00, the pIC50 [2] was 6.00 to 7.00 and the pIC50 [3] was at least 7.00.

For `CN1CCOc2nc(-c3ccc(C4(N)CCC4)cc3)c(-c3ccccc3)cc21` [Example 40, 1-(4-(1-methyl-7-phenyl-2,3-dihydro-1H-pyrido[2,3-b][1,4]oxazin-6-yl)phenyl)cyclobutanamine], the pIC50 [1] was 6.00 to 7.00, the pIC50 [2] was under 5.00 and the pIC50 [3] was 5.00 to 6.00.

In the case of `CSc1[nH]nc2c1CCc1nc(-c3ccc(C4(N)CCC4)cc3)c(-c3ccccc3)cc1-2` [Example 9, 1-(4-(3-(methylthio)-8-phenyl-4,5-dihydro-2H-pyrazolo[3,4-f]quinolin-7-yl)phenyl)cyclobutanamine], the pIC50 [1] was 6.00 to 7.00, the pIC50 [2] was under 5.00 and the pIC50 [3] was 5.00 to 6.00.

`CCN1C(=O)COc2nc(-c3ccc([C@]4(N)C[C@](C)(O)C4)cc3)c(-c3ccccc3)cc21` [Example 143, 6-(4-((1r,3r)-1-amino-3-hydroxy-3-methylcyclobutyl)phenyl)-1-ethyl-7-phenyl-1H-pyrido[2,3-b][1,4]oxazin-2(3H)-one] was tested, and the pIC50 [1] was at least 7.00, the pIC50 [2] was 6.00 to 7.00 and the pIC50 [3] was at least 7.00.

Work on `NC1(c2ccc(-c3nc4c(cc3-c3ccccc3)-n3c(nnc3C(F)F)CO4)cc2)CCC1` [Example 98, 1-(4-(1-(difluoromethyl)-8-phenyl-4H-pyrido[2,3-b][1,2,4]triazolo[4,3-d][1,4]oxazin-7-yl)phenyl)cyclobutanamine] yielded a pIC50 [1] of at least 7.00, a pIC50 [2] of 6.00 to 7.00 and a pIC50 [3] of 6.00 to 7.00.

Work on `NC1(c2ccc(-c3nc4c(cc3-c3ccccc3)C(=O)COC4)cc2)CCC1` [Example 127, 2-(4-(1-aminocyclobutyl)phenyl)-3-phenyl-6,8-dihydro-5H-pyrano[3,4-b]pyridin-5-one] yielded a pIC50 [1] of 5.00 to 6.00, a pIC50 [2] of under 5.00 and a pIC50 [3] of under 5.00.

`Cn1ncc2c1-c1cc(-c3ccccc3)c(-c3ccc(C4(N)CCC4)cc3)nc1CC2` [Example 6, 1-(4-(1-methyl-8-phenyl-4,5-dihydro-1H-pyrazolo[3,4-f]quinolin-7-yl)phenyl)cyclobutanamine] gave a pIC50 [1] of 6.00 to 7.00, a pIC50 [2] of 5.00 to 6.00 and a pIC50 [3] of 5.00 to 6.00.

`NC1(c2ccc(-c3nc4c(cc3-c3ccccc3)C(=O)NCC4)cc2)CCC1` [Example 22, 2-(4-(1-aminocyclobutyl)phenyl)-3-phenyl-7,8-dihydro-1,6-naphthyridin-5(6H)-one] was tested, and the pIC50 [1] was at least 7.00, the pIC50 [2] was under 5.00 and the pIC50 [3] was 5.00 to 6.00.

`CN1CC(=O)Nc2cc(-c3ccccc3)c(-c3ccc(C4(N)CCC4)cc3)nc21` [Example 72, 6-(4-(1-aminocyclobutyl)phenyl)-4-methyl-7-phenyl-3,4-dihydropyrido[2,3-b]pyrazin-2(1H)-one] was tested, and the pIC50 [1] was 6.00 to 7.00, the pIC50 [2] was under 5.00 and the pIC50 [3] was 5.00 to 6.00.

Work on `N[C@]1(c2ccc(-c3nc4c(cc3-c3ccccc3)N(CC3CC3)C(=O)CO4)cc2)C[C@H](O)C1` [Example 140, 6-(4-((1s,3s)-1-amino-3-hydroxycyclobutyl)phenyl)-1-(cyclopropylmethyl)-7-phenyl-1H-pyrido[2,3-b][1,4]oxazin-2(3H)-one] yielded a pIC50 [1] of 6.00 to 7.00, a pIC50 [2] of 5.00 to 6.00 and a pIC50 [3] of 6.00 to 7.00.

`N#CCCN1C(=O)COc2nc(-c3ccc(C4(N)CCC4)cc3)c(-c3ccccc3)cc21` [Example 62, 3-(6-(4-(1-aminocyclobutyl)phenyl)-2-oxo-7-phenyl-2,3-dihydro-1H-Pyrido[2,3-b][1,4]oxazin-1-yl)propanenitrile] showed a pIC50 [1] of 5.00 to 6.00, a pIC50 [2] of 5.00 to 6.00 and a pIC50 [3] of 6.00 to 7.00.

For `NC1(c2ccc(-c3nc4c(cc3-c3ccccc3)N(CC3CC3)C(=O)CO4)cc2)CCC1` [Example 55, 6-(4-(1-aminocyclobutyl)phenyl)-1-(cyclopropylmethyl)-7-phenyl-1H-pyrido[2,3-b][1,4]oxazin-2(3H)-one], the pIC50 [1] was 6.00 to 7.00, the pIC50 [2] was 6.00 to 7.00 and the pIC50 [3] was at least 7.00.

Compound `CC1Oc2nc(-c3ccc(C4(N)CCC4)cc3)c(-c3ccccc3)cc2NC1=O` (stereo not drawn) [Example 80, 6-(4-(1-aminocyclobutyl)phenyl)-3-methyl-7-phenyl-1H-pyrido[2,3-b][1,4]oxazin-2(3H)-one] has a pIC50 [1] of 6.00 to 7.00, a pIC50 [2] of under 5.00 and a pIC50 [3] of 6.00 to 7.00.

`N#CCN1CCOc2nc(-c3ccc(C4(N)CCC4)cc3)c(-c3ccccc3)cc21` [Example 43, 2-(6-(4-(1-aminocyclobutyl)phenyl)-7-phenyl-2,3-dihydro-1H-pyrido[2,3-b][1,4]oxazin-1-yl)acetonitrile] was tested, and the pIC50 [1] was 6.00 to 7.00, the pIC50 [2] was under 5.00 and the pIC50 [3] was at least 7.00.

Compound `NCc1ccc(-c2nc3c(cc2-c2ccccc2)N(CC(F)(F)F)C(=O)CO3)cc1` [Example 146, 6-(4-(Aminomethyl)phenyl)-7-phenyl-1-(2,2,2-trifluoroethyl)-1H-pyrido[2,3-b][1,4]oxazin-2(3H)-one] has a pIC50 [1] of 5.00 to 6.00, a pIC50 [2] of under 5.00 and a pIC50 [3] of 6.00 to 7.00.

`COCCN1C(=O)COc2nc(-c3ccc(C4(N)CCC4)cc3)c(-c3ccccc3)cc21` [Example 51, 6-(4-(1-aminocyclobutyl)phenyl)-1-(2-methoxyethyl)-7-phenyl-1H-pyrido[2,3-b][1,4]oxazin-2(3H)-one] gave a pIC50 [1] of 6.00 to 7.00, a pIC50 [2] of 5.00 to 6.00 and a pIC50 [3] of 6.00 to 7.00.

Work on `C=CCN1C(=O)COc2nc(-c3ccc(C4(N)CCC4)cc3)c(-c3ccccc3)cc21` [Example 67, 1-allyl-6-(4-(1-aminocyclobutyl)phenyl)-7-phenyl-1H-pyrido[2,3-b][1,4]oxazin-2(3H)-one] yielded a pIC50 [1] of 6.00 to 7.00, a pIC50 [2] of 5.00 to 6.00 and a pIC50 [3] of at least 7.00.

`CS(=O)(=O)c1[nH]nc2c1CCc1nc(-c3ccc(C4(N)CCC4)cc3)c(-c3ccccc3)cc1-2` [Example 10, 1-(4-(3-(methylsulfonyl)-8-phenyl-4,5-dihydro-2H-pyrazolo[3,4-f]quinolin-7-yl)phenyl)cyclobutanamine] showed a pIC50 [1] of 6.00 to 7.00, a pIC50 [2] of under 5.00 and a pIC50 [3] of 5.00 to 6.00.

In the case of `NC1(c2ccc(-c3nc4c(cc3-c3ccccc3)N(C3CCC3)C(=O)CO4)cc2)CCC1` [Example 61, 6-(4-(1-aminocyclobutyl)phenyl)-1-cyclobutyl-7-phenyl-1H-pyrido[2,3-b][1,4]oxazin-2(3H)-one], the pIC50 [1] was 5.00 to 6.00, the pIC50 [2] was 5.00 to 6.00 and the pIC50 [3] was 6.00 to 7.00.

Compound `NC1(c2ccc(-c3nc4c(cc3-c3ccccc3)-c3n[nH]cc3CCC4)cc2)CCC1` [Example 21, 1-(4-(9-phenyl-2,4,5,6-tetrahydropyrazolo[3′,4′:3,4]cyclohepta[1,2-b]pyridin-8-yl)phenyl)cyclobutanamine] has a pIC50 [1] of 6.00 to 7.00, a pIC50 [2] of under 5.00 and a pIC50 [3] of 5.00 to 6.00.

`NC1(c2ccc(-c3nc4c(cc3-c3ccccc3)-n3c(nnc3C(F)(F)F)CO4)cc2)CCC1` [Example 100, 1-(4-(8-phenyl-1-(trifluoromethyl)-4H-pyrido[2,3-b][1,2,4]triazolo[4,3-d][1,4]oxazin-7-yl)phenyl)cyclobutanamine] was tested, and the pIC50 [1] was 6.00 to 7.00, the pIC50 [2] was 5.00 to 6.00 and the pIC50 [3] was 5.00 to 6.00.

`NC1(c2ccc(-c3nc4c(cc3-c3ccccc3)N(CCF)C(=O)CCN4)cc2)CCC1` [Example 117, 7-(4-(1-aminocyclobutyl)phenyl)-1-(2-fluoroethyl)-8-phenyl-4,5-dihydro-1H-pyrido[2,3-b][1,4]diazepin-2(3H)-one] showed a pIC50 [1] of 5.00 to 6.00, a pIC50 [2] of 5.00 to 6.00 and a pIC50 [3] of 5.00 to 6.00.
